Like-named read-outs stand apart in the source and are kept apart here.
How the values were obtained:
Daudi = experiment: Cytotoxicity of linker-drug complex, Daudi; assay type: cell-based; settings: Homo sapiens
Description: (§1) The cytotoxicity of the linker-drug complex itself prepared to contain beta-galactosidase was evaluated. Specifically, each of the linker-drug complexes dissolved in DMSO was serially diluted 3× from 200 nM to 30 pM in a medium for cell culture to prepare a sample, and various cancer cell lines were treated with the sample to finally expose the cells to 100 nM to 15 pM the linker-drug complexes. The cells were cultured for 6 days, cell viability was observed using a CCK-8 cell-counting kit and cytotoxicity was evaluated.

Raji = experiment: Cytotoxicity of linker-drug complex, Raji; assay type: cell-based; settings: Homo sapiens
Description: as §1

JIMT1 = experiment: Cytotoxicity of linker-drug complex, JIMT1; assay type: cell-based; settings: Homo sapiens
Description: as §1

U266 = experiment: Cytotoxicity of linker-drug complex, U266; assay type: cell-based; settings: Homo sapiens
Description: as §1

H929 = experiment: Cytotoxicity of linker-drug complex, H929; assay type: cell-based; settings: Homo sapiens
Description: as §1

Calu-6 = experiment: Cytotoxicity of linker-drug complex, Calu-6; assay type: cell-based; settings: Homo sapiens
Description: as §1

HCC1954 = experiment: Cytotoxicity of linker-drug complex, HCC1954; assay type: cell-based; settings: Homo sapiens
Description: as §1

697 = experiment: Cytotoxicity of linker-drug complex, 697; assay type: cell-based
Description: as §1

NCI-N87 = experiment: Cytotoxicity of linker-drug complex, NCI-N87; assay type: cell-based; settings: Homo sapiens
Description: as §1

OPM-2 = experiment: Cytotoxicity of linker-drug complex, OPM-2; assay type: cell-based; settings: Homo sapiens
Description: as §1

Jeko-1 = experiment: Cytotoxicity of linker-drug complex, Jeko-1; assay type: cell-based; settings: Homo sapiens
Description: as §1

Mino = experiment: Cytotoxicity of linker-drug complex, Mino; assay type: cell-based; settings: Homo sapiens
Description: as §1

jurkat = experiment: Cytotoxicity of linker-drug complex, jurkat; assay type: cell-based; settings: Homo sapiens
Description: as §1

NaPi2b [1] = biological target: T1, NaPi2b (UniProt O95436 1-690, limits assumed); experiment: cell-based or functional assay
T1 sequence (looked up): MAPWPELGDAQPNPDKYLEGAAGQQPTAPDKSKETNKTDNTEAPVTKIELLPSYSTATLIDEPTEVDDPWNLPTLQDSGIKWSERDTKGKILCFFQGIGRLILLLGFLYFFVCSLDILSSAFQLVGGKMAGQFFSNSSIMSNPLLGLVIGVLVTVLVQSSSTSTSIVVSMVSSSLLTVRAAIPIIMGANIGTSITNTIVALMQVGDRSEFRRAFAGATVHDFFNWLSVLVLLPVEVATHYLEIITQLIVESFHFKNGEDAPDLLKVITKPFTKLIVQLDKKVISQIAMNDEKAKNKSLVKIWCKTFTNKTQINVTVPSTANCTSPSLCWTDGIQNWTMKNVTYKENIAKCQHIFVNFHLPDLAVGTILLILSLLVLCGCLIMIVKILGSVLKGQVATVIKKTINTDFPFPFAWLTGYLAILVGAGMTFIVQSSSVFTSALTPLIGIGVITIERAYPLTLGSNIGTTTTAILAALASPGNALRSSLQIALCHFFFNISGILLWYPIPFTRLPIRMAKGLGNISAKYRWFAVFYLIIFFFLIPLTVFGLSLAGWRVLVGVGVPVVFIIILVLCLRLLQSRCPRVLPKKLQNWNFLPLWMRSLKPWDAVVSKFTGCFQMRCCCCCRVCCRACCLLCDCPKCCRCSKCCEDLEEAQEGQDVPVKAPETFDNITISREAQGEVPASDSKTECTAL

NaPi2b [2] = biological target: T1, NaPi2b; experiment: cell-based or functional assay; remark: listed apart in the source
CLL-1 = biological target: T2, CLL-1 (UniProt Q5QGZ9 1-265, limits assumed); experiment: cell-based or functional assay
T2 sequence (looked up): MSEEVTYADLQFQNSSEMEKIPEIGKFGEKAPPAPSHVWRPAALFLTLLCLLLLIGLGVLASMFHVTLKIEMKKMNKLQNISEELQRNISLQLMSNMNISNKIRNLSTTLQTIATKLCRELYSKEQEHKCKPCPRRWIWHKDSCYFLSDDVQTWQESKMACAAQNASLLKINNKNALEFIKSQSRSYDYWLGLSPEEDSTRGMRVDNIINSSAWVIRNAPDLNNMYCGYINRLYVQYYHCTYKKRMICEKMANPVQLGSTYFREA

O=C(CCCCCN1C(=O)C=CC1=O)NCCOc1cc(/C=C/C(=O)N2C[C@@H](CCl)c3c2cc(O[C@@H]2O[C@H](CO)[C@H](O)[C@H](O)[C@H]2O)c2ccccc32)ccc1/C=C/C(=O)N1C[C@@H](CCl)c2c1cc(O[C@@H]1O[C@H](CO)[C@H](O)[C@H](O)[C@H]1O)c1ccccc21 [PD001] gave an IC50 (Daudi; 144 h, read-out: IC50 #1) of 12.5 nM, an IC50 (Daudi; read-out: IC50 #2) of 9.46 nM and an IC50 (Daudi; read-out: IC50 Mean) of 10.9 nM. The IC50 (Raji; 144 h, Burkitt's lymphoma, run #1, 6 days, CCK-8, read-out: IC50 #1) was 30.8 nM, the IC50 (Raji; mean of #1 and #2, read-out: IC50 Mean) was 18.4 nM and the IC50 (Raji; run #2, read-out: IC50 #2) was 11 nM. It also gave an IC50 (JIMT1; JIMT-1, 144 h, read-out: IC50 #1) of 47 nM, an IC50 (JIMT1; JIMT-1, read-out: IC50 #2) of 24.9 nM and an IC50 (JIMT1; JIMT-1, read-out: IC50 Mean) of 34.2 nM. The IC50 (U266; U-266, 144 h, read-out: IC50 #1) was 7.97 nM, the IC50 (U266; U-266, read-out: IC50 #2) was 5.61 nM and the IC50 (U266; U-266, read-out: IC50 Mean) was 6.69 nM. The IC50 (H929; NCI-H929, 144 h, read-out: IC50 #1) was 20.3 nM, the IC50 (H929; NCI-H929, read-out: IC50 #2) was 26.4 nM and the IC50 (H929; NCI-H929, read-out: IC50 Mean) was 23.1 nM. The IC50 (Calu-6; Calu-6, 144 h, read-out: IC50 #1) was 58.9 nM, the IC50 (Calu-6; Calu-6, read-out: IC50 #2) was 52.2 nM and the IC50 (Calu-6; Calu-6, read-out: IC50 Mean) was 55.4 nM. For the same molecule, the IC50 (HCC1954; HCC1954, 144 h, read-out: IC50 #1) was 25 nM, the IC50 (HCC1954; HCC1954, read-out: IC50 #2) was 16.4 nM and the IC50 (HCC1954; HCC1954, read-out: IC50 Mean) was 20.2 nM. The IC50 (697; 144 h, read-out: IC50 #1) was 4.78 nM, the IC50 (697; read-out: IC50 #2) was 3.72 nM and the IC50 (697; read-out: IC50 Mean) was 4.22 nM. It also gave an IC50 (NCI-N87; NCI-N87, 144 h, read-out: IC50 #1) of 8.06 nM, an IC50 (NCI-N87; NCI-N87, read-out: IC50 #2) of 9.09 nM and an IC50 (NCI-N87; NCI-N87, read-out: IC50 Mean) of 8.56 nM. For the same molecule, the IC50 (OPM-2; OPM-2, 144 h, read-out: IC50 #1) was 26.2 nM, the IC50 (OPM-2; OPM-2, read-out: IC50 #2) was 25.6 nM and the IC50 (OPM-2; OPM-2, read-out: IC50 Mean) was 25.9 nM. It also gave an IC50 (Jeko-1; JeKo-1, 144 h, read-out: IC50 #1) of 13.1 nM, an IC50 (Jeko-1; JeKo-1, read-out: IC50 #2) of 31.7 nM and an IC50 (Jeko-1; JeKo-1, read-out: IC50 Mean) of 20.4 nM. For the same molecule, the IC50 (Mino; 144 h, read-out: IC50 #1) was 3.26 nM, the IC50 (Mino; 144 h, read-out: IC50 #2) was 2.34 nM and the IC50 (Mino; read-out: IC50 Mean) was 2.76 nM. For the same molecule, the IC50 (jurkat; 144 h, read-out: IC50 #1) was 14.5 nM, the IC50 (jurkat; read-out: IC50 #2) was 1.12 nM and the IC50 (jurkat; read-out: IC50 Mean) was 12.7 nM.

B1: D20002 (10H1-PD001) (antibody, human IgG1, kappa, V domains shown)
VH: EVQLVESGGGLVQPGGSLRLSCAASGFSFSDFAMSWVRQAPGKGLEWVATIGRVAFHTYYPDSMKGRFTISRDNSKNTLYLQMNSLRAEDTAVYYCARHRGFDVGHFDFWGQGTLVTVSS
VL: DIQMTQSPSSLSASVGDRVTITCRSSETLVHSSGNTYLEWYQQKPGKAPKLLIYRVSNRFSGVPSRFSGSGSGTDFTLTISSLQPEDFATYYCFQGSFNPLTFGQGTKVEIKR
modifications: linker-drug PD001 conjugated to a cysteine put in place of lysine 149 (Kabat numbering) of the light chain
In the case of B1, the “IC50 (nM), cytotoxicity on OVCAR3” value (NaPi2b [1]) is reported as 1.5 nM, the “IC50, cytotoxicity on OVCAR-3” value (NaPi2b [2]) is reported as 1.53 nM and the “non-binder/binder ratio on OVCAR-3” value (NaPi2b [2]) is reported as ≥ 100.

B2: D20502 (6E7-PD009) (antibody, human IgG1, kappa, V domains shown)
VH: EVQLVESGGGLVQPGGSLRLSCAASGFSFSDFAMSWVRQAPGKGLEWVATIGRVAFHTYYPDSMKGRFTISRDNSKNTLYLQMNSLRAEDTAVYYCARHRGFDVGHFDFWGQGTLVTVSS
VL: DIQMTQSPSSLSASVGDRVTITCRASQSVSTSSYNYMHWYQQKPGKPPKLLIKYASNLESGVPSRFSGSGSGTDFTLTISSLQPEDFATYYCQHSWEIPLTFGQGTKVEIKR
modifications: linker-drug PD009 conjugated to a cysteine put in place of lysine 149 (Kabat numbering) of the light chain
B2 was tested, and the “IC50 (nM), cytotoxicity on EDL-1 (AML)” value (CLL-1) was 0.3 nM.

— US20220125944A1, “ANTIBODY-DRUG CONJUGATE AND USE THEREOF” (priority 2019, published 2022)
